Results from patent US20260216361A1, “NANOBODY-DRUG CONJUGATES AND METHODS OF PREPARING THEREOF” (Vanderbilt University, priority 2022, published 2026).
Like-named read-outs stand apart in the source and are kept apart here.

What was measured:
[1] = Pharmacokinetics of Cy5 dye and nanobody-Cy5 conjugates in healthy mice; assay type: in vivo, mouse; settings: 2 mg/kg I.V., healthy female C57BL/6 mice
Protocol: Pharmacokinetics and Ex Vivo Imaging Experiments. Healthy (Balb/c or C57BL/6) and EMT6 tumor bearing (Balb/c) mice were injected with 100 μL of Cy5 (either as free dye or as a nanobody conjugate) at a dose of 2 mg/kg intravenously. Blood draws were taken using heparinized capillary tubes (DWK Life Sciences) at discrete time points up to five days after injection. 1 μL of blood was mixed with 50 μL of PBS, centrifuged, and the diluted plasma was collected for analysis. Prescence of Cy5 was determined by fluorescence intensity using a plate reader, with an excitation wavelength of 645 nm and an emission wavelength of 675 nm. Pharmacokinetic analysis was performed in GraphPad Prism (V10) using either a one-phase decay or two-phase decay, in which the reported half-life is the second phase (elimination). Biodistribution studies were performed by excising and weighing hearts, lungs, livers, spleens, kidneys, and tumors. Tissue were washed in 1× PBS and transferred to the stage of the IVIS Lumina Ill (PerkinElmer). Fluorescence (radiant efficiency) was measured with a maximum value of 1.56×10^10, and a minimum of 8.21×10^8, and areas were drawn for organs to generate average radiant efficiency values (per cm^2) using the Living Image software (version 4.5). […] Images were taken on the IVIS and luminescence was quantified as total radiant flux (p/s) for each set of lungs.

[2] = cited from earlier work
EMT6 tumors = assay: Orthotopic EMT6 breast tumor model; assay type: in vivo, mouse; settings: nanobody carriers I.V. 1.25 μg agonist; ICB 100 μg intraperitoneally; Balb/c
Protocol: Evaluation of Nanobodies in Tumor Models. 6-8-week C57BL/6 mice (The Jackson Laboratory) were inoculated with B16.F10, B16.F10-LUC, or B16.F10-OVA models. For EMT6 models, 6-8 week Balb/C female mice (The Jackson Laboratory) were used. Tumors were generated in B16.F10 and B16.F10-OVA models by subcutaneous injection of 5×10^5 cancer cells, suspended in 100 μL of PBS, at the right flank side of the mouse. B16.F10-LUC inoculations were performed by intravenous (I.V.) injection at a volume of 100 μL and using 1×10^6 cancer cells. EMT6 inoculations were orthotopic and placed at the left-side 4th mammary fat pad at a volume of 100 μL and using […]. When the volume of tumors reached ~75-100 mm^3, mice were treated by I.V. injection of nanobodies or free diABZT compound 3 (using 40% PEG400 as an excipient for free diABZI, Sigma), or intraperitoneal (I.P) injection of commercial anti-PD-L1 IgG (Clone BEO101, Bio X Cell) (100 μL per injection). Tumor volume calculations were calculated using Vtumor=L×W2×0.5, in which Vtumor is tumor volume, L is tumor length, and W is tumor width. Tumor volume, total murine mass, and murine well-being were recorded for the duration of the study. The endpoint for maximum tumor volume (i.e. survival) during studies was 1500 mm^3.

## CC1(C)C(/C=C/C=C/C=C2/N(CCCCCC(=O)NCCC(=O)N3Cc4ccccc4C#Cc4ccccc43)c3ccc(S(=O)(=O)O)cc3C2(C)C)=[N+](CCCS(=O)(=O)[O-])c2ccc(S(=O)(=O)O)cc21 [DBCO-Cy5, reference compound]
[1]
  elimination half-life: approximately 5 minutes

## CCn1nc(C)cc1C(=O)Nc1nc2cc(C(N)=O)cc(OC)c2n1C/C=C/Cn1c(NC(=O)c2cc(C)nn2CC)nc2cc(C(N)=O)cc(OCCCN3CCOCC3)c21 [diABZI, reference compound]
[2]; in vivo
  half-life: ~ 90 minutes
EMT6 tumors
  tumor growth: did not confer a therapeutic benefit

## serum albumin
[2]; in mice
  half-life: 35 to 40 h
